Experimental data published in publication PMC7811981 (European Journal of Drug Metabolism and Pharmacokinetics, 2020).
Read-outs that look alike come from different tables or passages of the source.

Assays:
P-glycoprotein (P-gp) = conditions: cited from earlier work
[1] = Safety and tolerability assessments; type: in vivo, healthy adults (human); conditions: for Safety and tolerability: healthy adults
P-gp = type: in vivo, healthy adults (human); conditions: human, not told, po
[2] = type: in vivo, healthy adults (human); conditions: for AUC(0-inf) / Cmax / Tmax / half-life / AUC(0-t): human, plasma; for AUC(0-t): Period 2: omadacycline with verapamil, linear mixed-effect model
[3] = phase I studies; cited from earlier work
[4] = period 2, single oral 240 mg verapamil ER; data not shown
[5] = Period 2/Period 1 (with verapamil / alone)

Structure (SMILES): CN(C)c1cc(CNCC(C)(C)C)c(O)c2c1C[C@H]1C[C@H]3[C@H](N(C)C)C(O)=C(C(N)=O)C(=O)[C@@]3(O)C(O)=C1C2=O [Omadacycline]
- P-gp interaction (P-glycoprotein (P-gp); in vitro studies): substrate, but not as an inhibitor
- Propensity to permeate across the gastrointestinal (GI) tract (P-glycoprotein (P-gp); in vitro studies): low propensity to permeate
- P-gp interaction (P-glycoprotein (P-gp); in vitro transporter studies in CaCo cells): substrate of P-gp (but not an inhibitor or inducer)
- Clinical laboratory test results, vital sign measurements, physical examination findings, 12-lead ECG results ([1]; omadacycline alone and with verapamil ER): no clinically relevant findings
- Safety and tolerability ([1]; single oral 300 mg omadacycline plus 240 mg verapamil ER): safe and well tolerated
- Safety and tolerability ([1]; single oral dose 300 mg omadacycline alone): safe and well tolerated
- bioavailability (P-gp): ~43.1%
- λz terminal phase rate constant, arithmetic mean (arithmetic coefficient of variation) ([2]; Period 1: omadacycline alone, 300 mg oral, N = 12): 0.1 (11.2) l/h
- AUC0–24, ratio of geometric LS mean [2, 5]: 118.5%
- AUC0–inf, ratio of geometric LS mean [2, 5]: 124.6%
- AUC0–t, ratio of geometric LS mean [2, 5]: 118.6%
- Cmax, ratio of geometric LS mean [2, 5]: 113.6%
- λz terminal phase rate constant, arithmetic mean (arithmetic coefficient of variation) ([2]; Period 2: omadacycline with verapamil ER 240 mg, N = 10): 0.05 (10.7) l/h
- Increase in systemic exposure to omadacycline (AUC0–24, AUC0–t, AUC0–inf, Cmax) ([2]; after single oral 240 mg verapamil ER compared with omadacycline alone): 14–25%
- Plasma concentrations measurable up to (last sampling time) ([2]; both treatment periods, all instances): 24 h
- Time postdose within which Cmax was attained (visual inspection) ([2]; both treatment periods, mean plasma concentration-time profiles): ≤ 3 h
- AUC(0-inf) ([2]; oral): 10800 ng·h/mL
- Cmax ([2]; oral): 607 ng/mL
- AUC(0-inf) ([2]; oral, 240 mg): 10800 ng·h/mL
- Cmax ([2]; oral, 240 mg): 596 ng/mL
- Tmax ([2]; oral, 240 mg): 2.8 h
- half-life ([2]; oral, 240 mg): 14 h
- AUC(0-inf) ([2]; oral, 300 mg): 8690 ng·h/mL
- Cmax ([2]; oral, 300 mg): 534 ng/mL
- AUC(0-t) ([2]; oral, AUC0–24, geometric LS mean, N = 10): 7340 ng·h/mL
- AUC(0-t) ([2]; oral, AUC0–t, geometric LS mean, N = 10): 7340 ng·h/mL
- AUC(0-inf) ([2]; po, 300 mg): 8690 ng·h/mL
- Cmax ([2]; po, 300 mg): 534 ng/mL
- Tmax ([2]; po, 300 mg): 2.8 h
- half-life ([2]; po, 300 mg): 12.7 h
- AUC measures (AUC0–24, AUC0–t, AUC0–inf) higher than omadacycline alone ([2]; period 2 (after verapamil) vs period 1): 18–25%
- Increase in geometric mean of AUC0–inf ([2]; verapamil dosing compared with omadacycline alone): 18–25%
- Increase in bioavailability by inhibition of P-gp (as much as) ([2]; with verapamil, relative increase): ≤ 25.0%
- Exposure of 300 mg oral dose versus 100 mg IV dose [3]: comparable exposure

Structure (SMILES): COc1ccc(CCN(C)CCCC(C#N)(c2ccc(OC)c(OC)c2)C(C)C)cc1OC (centres unmarked) [verapamil]
- Plasma concentrations measurable from 2 h after administration up to (last sampling time) [4]: 24 h
